Data as given in US20250320193A1, “OXOISOINDOLINYL SUBSTITUTED PIPERIDINEDIONE DERIVATIVE AND USE THEREOF” (GLUETACS THERAPEUTICS (SHANGHAI) CO., LTD., priority 2022, published 2025).

Assays:
IKZF3 = IKZF3 (Homo sapiens (Human), UniProt Q96SW2+Q9UKT9); test: Western blot, substrate protein expression in hPBMC: IKZF3; format: cell-based; conditions: hPBMC, compound 500 nM, 24 hours, Western blot
Summary of the method: (§1)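 hPBMC, 1×10^6 cells/mL, 24 h compound exposure; RIPA lysis, BCA protein assay, SDS-PAGE, NC membrane immunoblot. Densitometry vs internal control → % protein remaining; degradation % = 100% − remaining; DC50 = conc. at 50% of DMSO band signal.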

[1] = target: human Cereblon WT GST-tagged protein (Homo sapiens (Human), UniProt Q96SW2); test: CRBN-binding affinity, HTRF (CEREBLON BINDING kit, CISBIO); conditions: HTRF inhibitory activity
Sequence of human Cereblon WT GST-tagged protein (Q96SW2 whole entry): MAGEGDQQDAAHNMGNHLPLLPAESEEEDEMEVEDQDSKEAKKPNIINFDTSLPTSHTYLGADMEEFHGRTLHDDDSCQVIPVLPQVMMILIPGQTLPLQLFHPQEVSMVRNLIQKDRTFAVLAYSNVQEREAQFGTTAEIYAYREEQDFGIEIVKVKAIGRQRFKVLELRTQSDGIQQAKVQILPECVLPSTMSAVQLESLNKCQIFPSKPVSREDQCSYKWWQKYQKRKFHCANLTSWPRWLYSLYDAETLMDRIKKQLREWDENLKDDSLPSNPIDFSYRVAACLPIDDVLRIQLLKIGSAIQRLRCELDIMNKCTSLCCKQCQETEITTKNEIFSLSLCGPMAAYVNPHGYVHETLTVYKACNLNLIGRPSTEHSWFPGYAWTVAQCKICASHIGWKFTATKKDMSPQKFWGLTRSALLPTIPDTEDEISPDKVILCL
Summary of the method: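 HTRF competition format: test compound displaces Thalidomide-Red from GST-tagged human Cereblon WT, detected with a Eu-labelled anti-GST antibody. Percent CRBN binding inhibition was derived from the 620 nm signal, normalized to solvent-control and protein-free blank wells.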

IKZF1 = IKZF1 (Homo sapiens (Human), UniProt Q13422+Q96SW2); test: Western blot, substrate protein expression in hPBMC: IKZF1; format: cell-based; conditions: hPBMC, compound 500 nM, 24 hours, Western blot
Sequence of IKZF1 (Q13422 whole entry): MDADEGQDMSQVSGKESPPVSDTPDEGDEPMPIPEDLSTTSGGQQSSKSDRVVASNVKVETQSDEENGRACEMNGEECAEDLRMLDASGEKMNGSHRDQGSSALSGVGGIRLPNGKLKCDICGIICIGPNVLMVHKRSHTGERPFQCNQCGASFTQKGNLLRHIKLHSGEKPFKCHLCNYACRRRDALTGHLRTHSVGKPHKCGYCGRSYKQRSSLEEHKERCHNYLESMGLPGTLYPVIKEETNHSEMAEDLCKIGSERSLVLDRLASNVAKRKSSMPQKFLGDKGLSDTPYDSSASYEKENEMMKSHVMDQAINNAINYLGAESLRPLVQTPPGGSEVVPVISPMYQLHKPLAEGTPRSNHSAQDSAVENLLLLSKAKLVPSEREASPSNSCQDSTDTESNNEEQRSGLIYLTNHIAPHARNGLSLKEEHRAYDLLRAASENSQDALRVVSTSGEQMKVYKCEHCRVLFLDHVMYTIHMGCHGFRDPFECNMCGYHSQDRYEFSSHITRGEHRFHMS
Sequence of IKZF1 (Q96SW2 whole entry): as the sequence (Q96SW2 whole entry) above
Sequence of IKZF1 (Q16531 whole entry partner): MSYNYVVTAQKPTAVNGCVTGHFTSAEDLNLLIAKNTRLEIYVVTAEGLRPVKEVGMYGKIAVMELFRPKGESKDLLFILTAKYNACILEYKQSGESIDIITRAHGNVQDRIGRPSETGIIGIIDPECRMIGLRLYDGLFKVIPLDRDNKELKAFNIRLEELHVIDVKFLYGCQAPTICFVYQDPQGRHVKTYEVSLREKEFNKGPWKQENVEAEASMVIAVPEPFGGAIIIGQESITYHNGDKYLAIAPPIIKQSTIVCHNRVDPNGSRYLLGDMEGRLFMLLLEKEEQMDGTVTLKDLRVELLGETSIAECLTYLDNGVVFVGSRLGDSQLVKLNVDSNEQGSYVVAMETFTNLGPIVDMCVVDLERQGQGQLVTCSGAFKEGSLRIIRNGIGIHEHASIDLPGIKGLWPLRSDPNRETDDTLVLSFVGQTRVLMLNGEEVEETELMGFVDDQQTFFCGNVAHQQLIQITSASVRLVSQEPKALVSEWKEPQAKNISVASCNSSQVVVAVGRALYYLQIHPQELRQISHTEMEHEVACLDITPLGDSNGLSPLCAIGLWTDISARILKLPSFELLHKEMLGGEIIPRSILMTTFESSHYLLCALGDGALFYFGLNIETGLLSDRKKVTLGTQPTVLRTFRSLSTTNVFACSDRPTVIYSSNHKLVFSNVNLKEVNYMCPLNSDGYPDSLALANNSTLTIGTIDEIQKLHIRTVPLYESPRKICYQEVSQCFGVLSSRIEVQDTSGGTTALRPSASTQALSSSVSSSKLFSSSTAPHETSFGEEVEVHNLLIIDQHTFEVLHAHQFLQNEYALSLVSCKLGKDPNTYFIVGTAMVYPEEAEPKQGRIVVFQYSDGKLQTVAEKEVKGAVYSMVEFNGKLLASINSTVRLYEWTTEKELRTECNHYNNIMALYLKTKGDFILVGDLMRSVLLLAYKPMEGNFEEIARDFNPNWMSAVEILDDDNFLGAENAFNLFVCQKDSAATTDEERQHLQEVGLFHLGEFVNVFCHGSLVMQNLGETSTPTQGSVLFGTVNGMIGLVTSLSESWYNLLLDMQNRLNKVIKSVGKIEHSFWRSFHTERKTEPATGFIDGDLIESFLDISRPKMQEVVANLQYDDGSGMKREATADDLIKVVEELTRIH
Summary of the method: as §1

GSPT1 = GSPT1 (Homo sapiens (Human), UniProt P15170+Q96SW2); test: Western blot, substrate protein expression in hPBMC: GSPT1; format: cell-based; conditions: hPBMC, compound 500 nM, 24 hours, Western blot
Sequence of GSPT1 (P15170 whole entry): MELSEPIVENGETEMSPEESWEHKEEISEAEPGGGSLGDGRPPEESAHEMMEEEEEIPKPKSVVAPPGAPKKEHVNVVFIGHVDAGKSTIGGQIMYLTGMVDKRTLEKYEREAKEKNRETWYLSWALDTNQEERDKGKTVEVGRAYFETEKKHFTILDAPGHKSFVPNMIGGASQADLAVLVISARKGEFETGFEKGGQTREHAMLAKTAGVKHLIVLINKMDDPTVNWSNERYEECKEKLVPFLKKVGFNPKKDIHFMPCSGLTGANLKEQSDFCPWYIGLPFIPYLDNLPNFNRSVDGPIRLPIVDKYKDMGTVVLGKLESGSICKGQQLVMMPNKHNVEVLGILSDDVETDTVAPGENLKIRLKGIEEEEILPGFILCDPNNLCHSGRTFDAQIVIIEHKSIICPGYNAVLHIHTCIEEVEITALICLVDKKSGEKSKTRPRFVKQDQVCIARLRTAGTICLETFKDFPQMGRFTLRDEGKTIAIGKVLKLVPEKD
Sequence of GSPT1 (Q96SW2 whole entry): as the sequence (Q96SW2 whole entry) above
Sequence of GSPT1 (Q16531 whole entry partner): as the sequence (Q16531 whole entry partner) above
Summary of the method: as §1

Sequence of IKZF3 (Q9UKT9 whole entry): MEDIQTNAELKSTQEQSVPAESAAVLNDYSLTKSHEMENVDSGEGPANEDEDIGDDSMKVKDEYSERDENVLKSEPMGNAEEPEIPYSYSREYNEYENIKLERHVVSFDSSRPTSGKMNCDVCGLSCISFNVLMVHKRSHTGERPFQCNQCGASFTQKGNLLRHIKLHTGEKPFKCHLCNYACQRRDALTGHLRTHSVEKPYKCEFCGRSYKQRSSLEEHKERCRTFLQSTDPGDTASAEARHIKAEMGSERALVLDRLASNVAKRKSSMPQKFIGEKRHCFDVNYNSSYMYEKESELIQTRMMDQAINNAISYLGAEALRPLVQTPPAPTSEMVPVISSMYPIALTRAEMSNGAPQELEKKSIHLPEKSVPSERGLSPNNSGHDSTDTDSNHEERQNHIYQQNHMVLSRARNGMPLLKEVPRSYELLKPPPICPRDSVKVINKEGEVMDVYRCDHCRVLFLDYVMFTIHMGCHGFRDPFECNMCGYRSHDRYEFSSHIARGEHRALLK
Sequence of IKZF3 (Q96SW2 whole entry): as the sequence (Q96SW2 whole entry) above
Sequence of IKZF3 (Q16531 whole entry partner): as the sequence (Q16531 whole entry partner) above

SMILES | substrate protein remaining % IKZF3 (IKZF3) | IC50 [1] | substrate protein remaining % IKZF1 (IKZF1) | substrate protein remaining % GSPT1 (GSPT1)
O=C1CCC(N2Cc3cc(CN4CCN(C(c5ccc(F)cc5)c5ccc(F)cc5)CC4)cc(F)c3C2=O)C(=O)N1 (stereo not shown) [GT-03565, 3-(5-((4-(bis(4-fluorophenyl)methyl)piperazin-1-yl)methyl)-7-fluoro-1-oxoisoindolin-2-yl)piperidine-2,6-dione] | B (B represents substrate protein remaining % > 50%) | < 500 nM | B (B represents substrate protein remaining % > 50%) | A (A represents 0% ≤ substrate protein remaining % ≤ 50%)
O=C1CCC(N2Cc3c(ccc(CN4CCN(C(c5ccc(Cl)cc5)c5ccc(Cl)cc5)CC4)c3F)C2=O)C(=O)N1 (stereo not shown) [GT-03567, 3-(5-((4-(bis(4-chlorophenyl)methyl)piperazin-1-yl)methyl)-4-fluoro-1-oxoisoindolin-2-yl)piperidine-2,6-dione] | A (A represents 0% ≤ substrate protein remaining % ≤ 50%) | 1000 to 1900 nM | B (B represents substrate protein remaining % > 50%) | A (A represents 0% ≤ substrate protein remaining % ≤ 50%)
O=C1CCC(N2Cc3cc(CN4C5CC4CN(C(c4ccccc4)c4ccccc4)C5)ccc3C2=O)C(=O)N1 (stereo not shown) [GT-03569, 3-(5-((3-benzhydryl-3,6-diazabicyclo[3.1.1]heptan-6-yl)methyl)-1-oxoisoindolin-2-yl)piperidine-2,6-dione] | A (A represents 0% ≤ substrate protein remaining % ≤ 50%) | 500 to 1000 nM | B (B represents substrate protein remaining % > 50%) | A (A represents 0% ≤ substrate protein remaining % ≤ 50%)
O=C1CCC(N2Cc3cc(CN4C[C@H]5C[C@@H]4CN5C(c4ccccc4)c4ccccc4)ccc3C2=O)C(=O)N1 (stereo partly drawn) [GT-03570, 3-(5-(((1R,4R)-5-benzhydryl-2,5-diazabicyclo[2.2.1]heptan-2-yl)methyl)-1-oxoisoindolin-2-yl)piperidine-2,6-dione] | B (B represents substrate protein remaining % > 50%) | < 500 nM | B (B represents substrate protein remaining % > 50%) | A (A represents 0% ≤ substrate protein remaining % ≤ 50%)
C[C@@H]1CN(C(c2ccccc2)c2ccccc2)CCN1Cc1ccc2c(c1)CN(C1CCC(=O)NC1=O)C2=O (stereo partly drawn) [GT-03571, 3-(5-(((R)-4-benzhydryl-2-methylpiperazin-1-yl)methyl)-1-oxoisoindolin-2-yl)piperidine-2,6-dione] | B (B represents substrate protein remaining % > 50%) | < 500 nM | B (B represents substrate protein remaining % > 50%) | A (A represents 0% ≤ substrate protein remaining % ≤ 50%)
C[C@@H]1CN(C(c2ccccc2)c2ccccc2)CCN1Cc1ccc2c(c1F)CN(C1CCC(=O)NC1=O)C2=O (stereo partly drawn) [GT-03574, 3-(5-(((R)-4-benzhydryl-2-methylpiperazin-1-yl)methyl)-4-fluoro-1-oxoisoindolin-2-yl)piperidine-2,6-dione] | B (B represents substrate protein remaining % > 50%) | 500 to 1000 nM | B (B represents substrate protein remaining % > 50%) | A (A represents 0% ≤ substrate protein remaining % ≤ 50%)
O=C1CCC(N2Cc3cc(CN4C5CC4CN(C(c4ccccc4)c4ccccc4)C5)cc(F)c3C2=O)C(=O)N1 (stereo not shown) [GT-03575, 3-(5-((3-benzhydryl-3,6-diazabicyclo[3.1.1]heptan-6-yl)methyl)-7-fluoro-1-oxoisoindolin-2-yl)piperidine-2,6-dione] | B (B represents substrate protein remaining % > 50%) | 500 to 1000 nM | B (B represents substrate protein remaining % > 50%) | A (A represents 0% ≤ substrate protein remaining % ≤ 50%)
O=C1CCC(N2Cc3cc(CN4CCN(C(c5ccc(OCc6ccccc6)cc5)c5ccc(OCc6ccccc6)cc5)CC4)ccc3C2=O)C(=O)N1 (stereo not shown) [GT-06424, 3-(5-((4-(bis(4-(benzyloxy)phenyl)methyl)piperazin-1-yl)methyl)-1-oxoisoindolin-2-yl)piperidine-2,6-dione] | A (A represents 0% ≤ substrate protein remaining % ≤ 50%) |  | B (B represents substrate protein remaining % > 50%) | A (A represents 0% ≤ substrate protein remaining % ≤ 50%)
O=C1CCC(N2C(=O)c3ccc(CN4CCN(C(c5ccc(OCc6ccccc6)cc5)c5ccc(OCc6ccccc6)cc5)CC4)cc3C2=O)C(=O)N1 (stereo not shown) [GT-06425, 5-((4-(bis(4-(benzyloxy)phenyl)methyl)piperazin-1-yl)methyl)-2-(2,6-dioxopiperidin-3-yl) isoindoline-1,3-dione] | A (A represents 0% ≤ substrate protein remaining % ≤ 50%) |  | B (B represents substrate protein remaining % > 50%) | A (A represents 0% ≤ substrate protein remaining % ≤ 50%)
O=C1CCC(N2C(=O)c3ccc(C(=O)N4CCN(C(c5ccc(OCc6ccccc6)cc5)c5ccc(OCc6ccccc6)cc5)CC4)cc3C2=O)C(=O)N1 (stereo not shown) [GT-06558, 5-(4-(bis(4-(benzyloxy)phenyl)methyl)piperazine-1-carbonyl)-2-(2,6-dioxopiperidin-3-yl) isoindoline-1,3-dione] | B (B represents substrate protein remaining % > 50%) |  | A (A represents 0% ≤ substrate protein remaining % ≤ 50%) | A (A represents 0% ≤ substrate protein remaining % ≤ 50%)
O=C1CCC(N2C(=O)c3ccc(C(=O)N4CCN(C(c5cc(F)cc(F)c5)c5cc(F)cc(F)c5)CC4)cc3C2=O)C(=O)N1 (stereo not shown) [GT-06598, 5-(4-(bis(3,5-difluorophenyl)methyl)piperazine-1-carbonyl)-2-(2,6-dioxopiperidin-3-yl) isoindoline-1,3-dione] | B (B represents substrate protein remaining % > 50%) |  | B (B represents substrate protein remaining % > 50%) | A (A represents 0% ≤ substrate protein remaining % ≤ 50%)
O=C1CCC(N2C(=O)c3ccc(CN4CCN(C(c5ccccc5)c5ccc(Br)cc5)CC4)cc3C2=O)C(=O)N1 (stereo not shown) [GT-06639, 5-((4-((4-bromophenyl) (phenyl)methyl)piperazin-1-yl)methyl)-2-(2,6-dioxopiperidin-3-yl) isoindoline-1,3-dione] | A (A represents 0% ≤ substrate protein remaining % ≤ 50%) |  | A (A represents 0% ≤ substrate protein remaining % ≤ 50%) | A (A represents 0% ≤ substrate protein remaining % ≤ 50%)
